Source: ChEMBL document CHEMBL1123627, “Effect of beta-alkyl substitution on D-1 dopamine agonist activity: absolute configuration of beta-methyldopamine” (1987)

Key:
Assay type in all cases: functional
Rattus norvegicus [1] = organism: Rattus norvegicus; assay: Ability to stimulate the production of cyclic AMP by rat retinal adenylate cyclase at a concentration of 0.1 uM
Rattus norvegicus [2] = organism: Rattus norvegicus; assay: Ability to stimulate the production of cyclic AMP by rat retinal adenylate cyclase at a concentration of 10 uM
Rattus norvegicus [3] = organism: Rattus norvegicus; assay: Ability to stimulate the production of cyclic AMP by rat retinal adenylate cyclase at a concentration of 1 uM

Row | Compound | Stimulation (Rattus norvegicus [1]) | Stimulation (Rattus norvegicus [2]) | Stimulation (Rattus norvegicus [3])
1 | C[C@H](CN)c1ccc(O)c(O)c1 | 1.6% | 39.1% | 11.7%
2 | CC(CN)c1ccc(O)c(O)c1 (single isomer, unassigned) | 1.5% | 41% | 6%
3 | NCC(c1ccccc1)c1ccc(O)c(O)c1 (stereo not given) | 4.9% | 97.1% | 16.3%
4 | NCCc1ccc(O)c(O)c1 [DOPAMINE] | 31.4% | 205.4% | 106.4%
5 | CC(CN)c1ccc(O)c(O)c1 (racemic) | 5.9% | 10.5% | -3.5%
